According to paper PMC10620989, “Going beyond Binary: Rapid Identification of Protein–Protein Interaction Modulators Using a Multifragment Kinetic Target-Guided Synthesis Approach” (Journal of Medicinal Chemistry, 2023):
Read-outs that look alike come from different tables or passages of the source.

Experiments:
Mcl-1 [1] = target: T1, Mcl-1 (Mus musculus, UniProt P97287); assay: Multifragment KTGS screen against Mcl-1 (5 TA x 38 SZ per well), LC-MS/MS; details: for KTGS hit call against Mcl-1: multifragment incubation, 10 µM Mcl-1, LC-MS/MS traces with vs without protein; for Amplification coefficient 5TA x 38SZ: multifragment KTGS, 190 combinations per well, 10 μM Mcl-1, 20 μM each fragment, pH 7.4, 37 °C, 10 h, peak area with protein / without protein
T1 sequence (P97287 whole entry, the tested form may be a part): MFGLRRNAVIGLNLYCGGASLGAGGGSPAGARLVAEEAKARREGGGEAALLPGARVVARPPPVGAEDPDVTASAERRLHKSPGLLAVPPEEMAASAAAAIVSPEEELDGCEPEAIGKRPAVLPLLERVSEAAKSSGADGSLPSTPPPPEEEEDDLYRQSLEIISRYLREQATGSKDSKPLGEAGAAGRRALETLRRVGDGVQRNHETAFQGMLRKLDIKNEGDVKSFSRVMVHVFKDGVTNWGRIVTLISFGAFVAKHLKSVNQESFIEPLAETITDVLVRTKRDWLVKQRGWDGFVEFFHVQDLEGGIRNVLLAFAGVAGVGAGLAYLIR

[2] = target: GST-tagged mouse Mcl-1-(152–309) (Mus musculus, UniProt P97287); assay: Fluorescence polarization competitive binding assay, GST-Mcl-1 / FITC-Bim-BH3; details: for inhibition at 100 µM: read-out: inhibition in the fluorescence polarization assay, fragments tested individually; for inhibition at 50 µM: compound at 50 µM
Sequence of GST-tagged mouse Mcl-1-(152–309) (P97287 152-309): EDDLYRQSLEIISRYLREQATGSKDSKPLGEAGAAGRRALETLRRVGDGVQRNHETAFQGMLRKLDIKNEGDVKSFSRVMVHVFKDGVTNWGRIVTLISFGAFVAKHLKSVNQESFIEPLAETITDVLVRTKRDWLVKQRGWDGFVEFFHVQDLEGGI

Mcl-1 [3] = target: T1, Mcl-1; assay: Binary KTGS incubation (1 TA x 1 SZ) with Mcl-1, LC-MS/MS; details: binary incubation mixtures with and without Mcl-1
[4] = FP, GST-Mcl-1 and fluorescein-labeled Bim BH3 peptide, read-out: IC50 on Mcl-1

Compound | KTGS hit call against Mcl-1 (Mcl-1 [1]) | inhibition at 100 µM [2] [%] | Amplification coefficient 1TA x 1SZ (Mcl-1 [3]) | Amplification coefficient 5TA x 38SZ (Mcl-1 [1]) | inhibition at 50 µM ([2]; FP) [%] | IC50 [2, 4] [µM] | IC50 ([2]; IC50 on Mcl-1) [µM]
CC(=O)Nc1ccc(S(=O)(=O)NC(=O)Cn2c3ccccc3c3ccccc32)cc1 [SZ3TA15] | non-hit |  |  |  |  |  | 
[N-]=[N+]=NS(=O)(=O)c1ccc(NCCSc2ccccc2)c([N+](=O)[O-])c1 [SZ4] |  | 23 |  |  |  |  | 
COc1cc2c(cc1OC)C(c1ccccc1)N(Cc1ccc(S(=O)(=O)NC(=O)CCCN3C(=O)C(c4ccc(F)cc4F)=C(c4ccc(F)cc4F)C3=O)cc1)CC2 (stereo not shown) [SZ8TA20, O=C(NS(C1=CC=C(CN2CCC(C=C(OC)C(OC)=C3)=C3C2C4=CC=CC=C4)C=C1)(=O)=O)CCCN5C(C(C6=C(F)C=C(F)C=C6)=C(C7=CC=C(F)C=C7F)C5=O)=O] |  |  | 10 | 20 | 19.2 |  | 
[N-]=[N+]=NS(=O)(=O)c1ccc(CN(CCSc2ccccc2)Cc2ccc(S(=O)(=O)NC(=O)c3ccc(CCc4ccccn4)cc3)cc2)cc1 [SZ9TA17, O=C(NS(C1=CC=C(CN(CC2=CC=C(S(=O)(N=[N+]=[N-])=O)C=C2)CCSC3=CC=CC=C3)C=C1)(=O)=O)C4=CC=C(CCC5=NC=CC=C5)C=C4] |  |  | 18 | 22 | > 99 | 20.4 | 
[N-]=[N+]=NS(=O)(=O)c1ccc(CN(CCSc2ccccc2)Cc2ccc(S(=O)(=O)NC(=O)c3ccc(-c4ccccn4)cc3)cc2)cc1 [SZ9TA25, O=C(NS(C1=CC=C(CN(CCSC2=CC=CC=C2)CC3=CC=C(S(=O)(N=[N+]=[N-])=O)C=C3)C=C1)(=O)=O)C4=CC=C(C5=NC=CC=C5)C=C4] |  |  | 8 | 15 | 47.6 |  | 
[N-]=[N+]=NS(=O)(=O)c1ccc(CN(CCSc2ccccc2)Cc2ccc(S(=O)(=O)N=[N+]=[N-])cc2)cc1 [SZ9] |  | 13 |  |  |  |  | 
NS(=O)(=O)c1ccc(CN(CCSc2ccccc2)Cc2ccc(S(=O)(=O)NC(=O)Cn3c4ccccc4c4ccccc43)cc2)cc1 [SZ10TA15, O=C(NS(C1=CC=C(CN(CC2=CC=C(S(=O)(N)=O)C=C2)CCSC3=CC=CC=C3)C=C1)(=O)=O)CN4C(C=CC=C5)=C5C6=C4C=CC=C6] |  |  | 8 | 10 | 37.4 |  | 
NS(=O)(=O)c1ccc(CN(CCSc2ccccc2)Cc2ccc(S(=O)(=O)NC(=O)c3ccc(-c4ccccn4)cc3)cc2)cc1 [SZ10TA25, O=C(NS(C1=CC=C(CN(CCSC2=CC=CC=C2)CC3=CC=C(S(=O)(N)=O)C=C3)C=C1)(=O)=O)C4=CC=C(C5=NC=CC=C5)C=C4] |  |  | 5 | 12 | 93.6 |  | 
NS(=O)(=O)c1ccc(CN(CCSc2ccccc2)Cc2ccc(S(=O)(=O)NC(=O)CC3Sc4ccccc4NC3=O)cc2)cc1 (stereo not shown) [SZ10TA34, O=C(NS(C1=CC=C(CN(CCSC2=CC=CC=C2)CC3=CC=C(S(=O)(N)=O)C=C3)C=C1)(=O)=O)CC4SC5=CC=CC=C5NC4=O] |  |  | 6 | 7 | 64.1 |  | 
NS(=O)(=O)c1ccc(CN(CCSc2ccccc2)Cc2ccc(S(=O)(=O)NC(=O)c3ccc4oc(-c5ccccc5)cc4c3)cc2)cc1 [SZ10TA41, O=C(NS(C1=CC=C(CN(CCSC2=CC=CC=C2)CC3=CC=C(S(=O)(N)=O)C=C3)C=C1)(=O)=O)C4=CC(C=C(C5=CC=CC=C5)O6)=C6C=C4] |  |  | 40 | 20 | 12.4 |  | 
NS(=O)(=O)c1ccc(CN(CCSc2ccccc2)Cc2ccc(S(=O)(=O)NC(=O)c3cccc(NCCc4ccccc4)c3)cc2)cc1 [SZ10TA44, O=C(NS(C1=CC=C(CN(CCSC2=CC=CC=C2)CC3=CC=C(S(=O)(N)=O)C=C3)C=C1)(=O)=O)C4=CC(NCCC5=CC=CC=C5)=CC=C4] |  |  | 9 | 12 | 63.4 |  | 
CC(C)(C)c1ccc(-c2ccc(S(=O)(=O)NC(=O)c3ccccc3)cc2)cc1 [SZ11TA1] | non-hit |  |  |  |  |  | 
CC(C)(C)c1ccc(-c2ccc(S(=O)(=O)NC(=O)c3ccc4c(ccn4Cc4ccc(C(F)(F)F)cc4C(F)(F)F)c3)cc2)cc1 [SZ11TA30, O=C(NS(C1=CC=C(C2=CC=C(C(C)(C)C)C=C2)C=C1)(=O)=O)C3=CC(C=CN4CC5=CC=C(C(F)(F)F)C=C5C(F)(F)F)=C4C=C3] |  |  | 7 | 12 | 63.6 |  | 
Cn1cc(C(=O)C2CCCCC2)c2cc(C(=O)NS(=O)(=O)c3ccc(-c4ccc(C(C)(C)C)cc4)cc3)ccc21 [SZ11TA40, O=C(NS(C1=CC=C(C2=CC=C(C(C)(C)C)C=C2)C=C1)(=O)=O)C3=CC(C(C(C4CCCCC4)=O)=CN5C)=C5C=C3] |  |  | 5.5 | 8 | > 99 | 21.9 | 
CC1(C)CCN(c2ccc(C(=O)NS(=O)(=O)c3ccc(CNc4cccc([N+](=O)[O-])c4)cc3)cc2)CC1 [SZ12TA2, O=C(NS(C1=CC=C(CNC2=CC=CC([N+]([O-])=O)=C2)C=C1)(=O)=O)C(C=C3)=CC=C3N4CCC(C)(C)CC4] |  |  | 4 | 7 | 54.1 |  | 
Cn1cc(C(=O)C2CCCCC2)c2cc(C(=O)NS(=O)(=O)c3ccc(COc4ccc5c(=O)cc(-c6ccccc6)oc5c4)cc3)ccc21 [SZ14TA40, O=C(NS(C1=CC=C(COC2=CC=C(C(C=C(C3=CC=CC=C3)O4)=O)C4=C2)C=C1)(=O)=O)C5=CC=C6C(C(C(C7CCCCC7)=O)=CN6C)=C5] |  |  | 15 | 24 | 93.1 |  | 
O=C(NS(=O)(=O)c1ccc(CN(CCSc2ccccc2)Cc2c(F)cccc2Cl)cc1)c1cccc2ccccc12 [SZ15TA7, O=C(NS(C1=CC=C(CN(CCSC2=CC=CC=C2)CC3=C(F)C=CC=C3Cl)C=C1)(=O)=O)C4=C(C=CC=C5)C5=CC=C4] |  |  | 9 | 8 | 98.4 |  | 15.4
O=C(NS(=O)(=O)c1ccc(CN(CCSc2ccccc2)Cc2c(F)cccc2Cl)cc1)c1ccc(-c2ccc(F)cc2)cc1 [SZ15TA14, O=C(NS(C1=CC=C(CN(CCSC2=CC=CC=C2)CC3=C(F)C=CC=C3Cl)C=C1)(=O)=O)C4=CC=C(C5=CC=C(F)C=C5)C=C4] |  |  | 6 | 7 | 58.8 |  | 
O=C(Cn1c2ccccc2c2ccccc21)NS(=O)(=O)c1ccc(CN(CCSc2ccccc2)Cc2c(F)cccc2Cl)cc1 [SZ15TA15, O=C(NS(C1=CC=C(CN(CCSC2=CC=CC=C2)CC3=C(F)C=CC=C3Cl)C=C1)(=O)=O)CN4C(C=CC=C5)=C5C6=C4C=CC=C6] |  |  | 10 | 9 | 53.6 |  | 
COc1ccc(Cc2ccc(C(=O)NS(=O)(=O)c3ccc(CN(CCSc4ccccc4)Cc4c(F)cccc4Cl)cc3)cc2)c(OC)c1OC [SZ15TA24, O=C(NS(C1=CC=C(CN(CCSC2=CC=CC=C2)CC3=C(F)C=CC=C3Cl)C=C1)(=O)=O)C4=CC=C(CC5=CC=C(OC)C(OC)=C5OC)C=C4] |  |  | 15 | 20 | 70.8 |  | 
O=C(NS(=O)(=O)c1ccc(-c2ccc(C(F)(F)F)cc2)cc1)c1cccc(NCCc2ccccc2)c1 [SZ16TA44, O=C(NS(C1=CC=C(C2=CC=C(C(F)(F)F)C=C2)C=C1)(=O)=O)C3=CC(NCCC4=CC=CC=C4)=CC=C3] |  |  | 4 | 12 | 98.1 | 31.5 | 
COc1cccc(CN(CCSc2ccccc2)Cc2ccc(S(=O)(=O)NC(=O)c3ccc(OC(F)(F)F)cc3)cc2)c1 [SZ17TA8, O=C(NS(C1=CC=C(CN(CCSC2=CC=CC=C2)CC3=CC(OC)=CC=C3)C=C1)(=O)=O)C4=CC=C(OC(F)(F)F)C=C4] |  |  | 4 | 8 | > 99 | 8.4 | 
COc1cccc(CN(CCSc2ccccc2)Cc2ccc(S(=O)(=O)NC(=O)Cn3c4ccccc4c4ccccc43)cc2)c1 [SZ17TA15, O=C(NS(C1=CC=C(CN(CC2=CC(OC)=CC=C2)CCSC3=CC=CC=C3)C=C1)(=O)=O)CN4C(C=CC=C5)=C5C6=C4C=CC=C6] |  |  | 4 | 13 | 60.6 |  | 
COc1cccc(CN(CCSc2ccccc2)Cc2ccc(S(=O)(=O)NC(=O)c3ccc(Cc4ccc(OC)c(OC)c4OC)cc3)cc2)c1 [SZ17TA24, O=C(NS(C1=CC=C(CN(CCSC2=CC=CC=C2)CC3=CC(OC)=CC=C3)C=C1)(=O)=O)C4=CC=C(CC5=CC=C(OC)C(OC)=C5OC)C=C4] |  |  | 5 | 9 | 74.1 |  | 
COc1cccc(CN(CCSc2ccccc2)Cc2ccc(S(=O)(=O)NC(=O)c3ccc(-c4ccccn4)cc3)cc2)c1 [SZ17TA25, O=C(NS(C1=CC=C(CN(CCSC2=CC=CC=C2)CC3=CC(OC)=CC=C3)C=C1)(=O)=O)C4=CC=C(C5=NC=CC=C5)C=C4] |  |  | 4 | 7 | 93.6 |  | 
COc1cccc(CN(CCSc2ccccc2)Cc2ccc(S(=O)(=O)NC(=O)c3ccc(C(c4c[nH]c5ccccc45)c4c[nH]c5ccccc45)cc3)cc2)c1 [SZ17TA31, O=S(C1=CC=C(C=C1)CN(CCSC2=CC=CC=C2)CC3=CC=CC(OC)=C3)(NC(C(C=C4)=CC=C4C(C5=CNC6=C5C=CC=C6)C7=CNC8=C7C=CC=C8)=O)=O] |  |  | 9 | 21 | 42.5 |  | 
Cc1cc(OCCCc2c(C(=O)NS(=O)(=O)c3ccc(C(=O)O)o3)[nH]c3c(-c4c(C)nn(C)c4C)c(Cl)ccc23)cc(C)c1Cl [compound 60, O=C(NS(C1=CC=C(C(O)=O)O1)(=O)=O)C2=C(CCCOC3=CC(C)=C(Cl)C(C)=C3)C4=CC=C(Cl)C(C5=C(C)N(C)N=C5C)=C4N2, reference compound] |  |  |  |  | > 99 |  | 
